Experimental data as given in ChEMBL document CHEMBL3885861, “Open TG-GATES”.

Organism: Rattus norvegicus
Assay: Open TG-GATES - Regimen: Daily Repeat
Format: toxicity, organism-based, Sprague-Dawley
Parameters: regimen Daily Repeat, gender Male, age 6 weeks
Conditions: in vivo, po, 0 mg/kg, route gavage, dose level Control; for APTT / Bas / Eos / Fbg / Hb / Ht / Lym / MCH / MCHC / MCV / Mono / Neu / PT / Plat / RBC / Ret / WBC: tissue Blood; for KIDNEY_L / KIDNEY_R / KIDNEY_TOTAL: tissue Kidney; for LIVER: tissue Liver; for A/G / ALP / ALT / AST / BUN / CRE / Ca / Cl / DBIL / GLC / IP / K / LDH / Na / PL / RALB / TBIL / TC / TG / TP / gamma-GTP: tissue Plasma

Structure (SMILES): CCN(CC)N=O [N-NITROSODIETHYLAMINE]
- TERMINAL_BW (72 h, time 3 day): 240.5 g
- APTT (72 h, time 3 day): 18.3 s
- Bas (72 h, time 3 day): 0.8%
- Eos (72 h, time 3 day): 1.2%
- Fbg (72 h, time 3 day): 218.2 mg/dL
- Hb (72 h, time 3 day): 13.8 g/dL
- Ht (72 h, time 3 day): 39.7%
- Lym (72 h, time 3 day): 77.6%
- MCH (72 h, time 3 day): 21.7 pg
- MCHC (72 h, time 3 day): 34.8%
- MCV (72 h, time 3 day): 62.3 fL
- Mono (72 h, time 3 day): 2.6%
- Neu (72 h, time 3 day): 17.6%
- PT (72 h, time 3 day): 12 s
- Plat (72 h, time 3 day): 135 x10_4/uL
- RBC (72 h, time 3 day): 638.8 x10_4/ul
- Ret (72 h, time 3 day): 5.8%
- WBC (72 h, time 3 day): 87.8 x10_2/uL
- KIDNEY_L (72 h, time 3 day): 1 g
- KIDNEY_R (72 h, time 3 day): 1 g
- KIDNEY_TOTAL (72 h, time 3 day): 2 g
- LIVER (72 h, time 3 day): 10.5 g
- A/G (72 h, time 3 day): 1.6
- ALP (72 h, time 3 day): 962 IU/L
- ALT (72 h, time 3 day): 35.8 IU/L
- AST (72 h, time 3 day): 67 IU/L
- BUN (72 h, time 3 day): 16.2 mg/dL
- CRE (72 h, time 3 day): 0.4 mg/dL
- Ca (72 h, time 3 day): 10.8 mg/dL
- Cl (72 h, time 3 day): 102.2 meq/L
- DBIL (72 h, time 3 day): 0.09 mg/dL
- GLC (72 h, time 3 day): 200.6 mg/dL
- IP (72 h, time 3 day): 8 mg/dL
- K (72 h, time 3 day): 4 meq/L
- LDH (72 h, time 3 day): 211.2 IU/L
- Na (72 h, time 3 day): 140.2 meq/L
- PL (72 h, time 3 day): 153 mg/dL
- RALB (72 h, time 3 day): 3.4 g/dL
- TBIL (72 h, time 3 day): 0.1 mg/dL
- TC (72 h, time 3 day): 82.6 mg/dL
- TG (72 h, time 3 day): 79.2 mg/dL
- TP (72 h, time 3 day): 5.6 g/dL
- gamma-GTP (72 h, time 3 day): 1 IU/L
- TERMINAL_BW ([…], time 7 day): 275.8 g
- TERMINAL_BW ([…], time 14 day): 325.9 g
- TERMINAL_BW ([…], time 28 day): 396.4 g
- APTT ([…], time 7 day): 20.6 s
- Bas ([…], time 7 day): 0%
- Eos ([…], time 7 day): 1%
- Fbg ([…], time 7 day): 217.4 mg/dL
- Hb ([…], time 7 day): 13.5 g/dL
- Ht ([…], time 7 day): 38.7%
- Lym ([…], time 7 day): 79.6%
- MCH ([…], time 7 day): 21.3 pg
- MCHC ([…], time 7 day): 34.9%
- MCV ([…], time 7 day): 61 fL
- Mono ([…], time 7 day): 2.4%
- Neu ([…], time 7 day): 16%
- PT ([…], time 7 day): 11.8 s
- Plat ([…], time 7 day): 142.9 x10_4/uL
- RBC ([…], time 7 day): 634 x10_4/ul
- Ret ([…], time 7 day): 5.8%
- WBC ([…], time 7 day): 109.2 x10_2/uL
- APTT ([…], time 14 day): 21.7 s
- Bas ([…], time 14 day): 1%
- Eos ([…], time 14 day): 0.8%
- Fbg ([…], time 14 day): 216.6 mg/dL
- Hb ([…], time 14 day): 14.7 g/dL
- Ht ([…], time 14 day): 41.9%
- Lym ([…], time 14 day): 82%
- MCH ([…], time 14 day): 21 pg
- MCHC ([…], time 14 day): 35%
- MCV ([…], time 14 day): 60.1 fL
- Mono ([…], time 14 day): 1.8%
- Neu ([…], time 14 day): 13.8%
- PT ([…], time 14 day): 12 s
- Plat ([…], time 14 day): 124.2 x10_4/uL
- RBC ([…], time 14 day): 697 x10_4/ul
- Ret ([…], time 14 day): 4.3%
- WBC ([…], time 14 day): 94.2 x10_2/uL
- APTT ([…], time 28 day): 21.9 s
- Bas ([…], time 28 day): 0.8%
- Eos ([…], time 28 day): 1.4%
- Fbg ([…], time 28 day): 225 mg/dL
- Hb ([…], time 28 day): 15.5 g/dL
- Ht ([…], time 28 day): 42.3%
- Lym ([…], time 28 day): 80.8%
- MCH ([…], time 28 day): 20.4 pg
- MCHC ([…], time 28 day): 36.6%
- MCV ([…], time 28 day): 55.8 fL
- Mono ([…], time 28 day): 2%
- Neu ([…], time 28 day): 14.8%
- PT ([…], time 28 day): 11.6 s
- Plat ([…], time 28 day): 108.6 x10_4/uL
- RBC ([…], time 28 day): 758.6 x10_4/ul
- Ret ([…], time 28 day): 2.6%
- WBC ([…], time 28 day): 81 x10_2/uL
- KIDNEY_L ([…], time 7 day): 1.2 g
- KIDNEY_R ([…], time 7 day): 1.1 g
- KIDNEY_TOTAL ([…], time 7 day): 2.3 g
- KIDNEY_L ([…], time 14 day): 1.3 g
- KIDNEY_R ([…], time 14 day): 1.3 g
- KIDNEY_TOTAL ([…], time 14 day): 2.6 g
- KIDNEY_L ([…], time 28 day): 1.3 g
- KIDNEY_R ([…], time 28 day): 1.3 g
- KIDNEY_TOTAL ([…], time 28 day): 2.7 g
- LIVER ([…], time 7 day): 12.4 g
- LIVER ([…], time 14 day): 13.5 g
- LIVER ([…], time 28 day): 14.9 g
- A/G ([…], time 7 day): 1.5
- ALP ([…], time 7 day): 863.2 IU/L
- ALT ([…], time 7 day): 32.2 IU/L
- AST ([…], time 7 day): 66.2 IU/L
- BUN ([…], time 7 day): 15 mg/dL
- CRE ([…], time 7 day): 0.4 mg/dL
- Ca ([…], time 7 day): 10.4 mg/dL
- Cl ([…], time 7 day): 103.2 meq/L
- DBIL ([…], time 7 day): 0.1 mg/dL
- GLC ([…], time 7 day): 194.8 mg/dL
- IP ([…], time 7 day): 8.5 mg/dL
- K ([…], time 7 day): 4.1 meq/L
- LDH ([…], time 7 day): 190 IU/L
- Na ([…], time 7 day): 141 meq/L
- PL ([…], time 7 day): 153 mg/dL
- RALB ([…], time 7 day): 3.3 g/dL
- TBIL ([…], time 7 day): 0.2 mg/dL
- TC ([…], time 7 day): 83.2 mg/dL
- TG ([…], time 7 day): 102.8 mg/dL
- TP ([…], time 7 day): 5.5 g/dL
- gamma-GTP ([…], time 7 day): 1 IU/L
- A/G ([…], time 14 day): 1.5
- ALP ([…], time 14 day): 688.8 IU/L
- ALT ([…], time 14 day): 31 IU/L
- AST ([…], time 14 day): 64.2 IU/L
- BUN ([…], time 14 day): 15 mg/dL
- CRE ([…], time 14 day): 0.5 mg/dL
- Ca ([…], time 14 day): 10.6 mg/dL
- Cl ([…], time 14 day): 101.6 meq/L
- DBIL ([…], time 14 day): 0.086 mg/dL
- GLC ([…], time 14 day): 205 mg/dL
- IP ([…], time 14 day): 8 mg/dL
- K ([…], time 14 day): 4 meq/L
- LDH ([…], time 14 day): 198.4 IU/L
- Na ([…], time 14 day): 141.6 meq/L
- PL ([…], time 14 day): 144.4 mg/dL
- RALB ([…], time 14 day): 3.4 g/dL
- TBIL ([…], time 14 day): 0.1 mg/dL
- TC ([…], time 14 day): 72.8 mg/dL
- TG ([…], time 14 day): 93.6 mg/dL
- TP ([…], time 14 day): 5.8 g/dL
- gamma-GTP ([…], time 14 day): 1 IU/L
- A/G ([…], time 28 day): 1.3
- ALP ([…], time 28 day): 606.8 IU/L
- ALT ([…], time 28 day): 33 IU/L
- AST ([…], time 28 day): 63.6 IU/L
- BUN ([…], time 28 day): 17.4 mg/dL
- CRE ([…], time 28 day): 0.5 mg/dL
- Ca ([…], time 28 day): 10.3 mg/dL
- Cl ([…], time 28 day): 103 meq/L
- DBIL ([…], time 28 day): 0.092 mg/dL
- GLC ([…], time 28 day): 208.4 mg/dL
